Like-named read-outs stand apart in the source and are kept apart here. One block for each compound: values may come before it.
Tests used:
FKBP12 = target: T1, FKBP12 (Homo sapiens, UniProt P62942); test: Competition fluorescence polarization assay with FITC-rapamycin tracer; assay type: binding
T1 construct: His-tag (HRV 3C cleavable) (cleaved yes); made in house; host or cells: Escherichia coli BL21(DE3)
Experimental: Compound binding affinity was determined using a competition fluorescence polarization assay. […] The assay buffer was 20 mM HEPES pH 7.5 and 0.01% Triton X-100. […] Data were fitted to a three-parameter sigmoidal curve to derive IC50 values. Ki of the compounds were calculated using a tool provided by S. Wang’s laboratory (http://www.umich.edu/~shaomengwanglab/software/calc_ki/index.html). Data were plotted in GraphPad Prism 9.0.

mTOR = target: T2, mTOR (Homo sapiens, UniProt P42345); test: In vitro mTOR kinase inhibition assay (SelectScreen Z'-LYTE), with or without 10 µM FKBP12; assay type: biochemical; conditions: for remaining activity at 4.95 pM / remaining activity at 15.2 pM / remaining activity at 45.7 pM / remaining activity at 0.000137 µM / remaining activity at 0.000412 µM / remaining activity at 0.00123 µM / remaining activity at 0.0111 µM / remaining activity at 0.0333 µM / remaining activity at […]: read-out: residual kinase activity (mTOR); for remaining activity at 0.0333 µM: 33.3 nM drug
T2 construct: We performed in vitro kinase assays with purified mTOR protein; purchased SelectScreen Services (Thermo Fisher Scientific)
T2 sequence (P42345 1360-2549 limits assumed): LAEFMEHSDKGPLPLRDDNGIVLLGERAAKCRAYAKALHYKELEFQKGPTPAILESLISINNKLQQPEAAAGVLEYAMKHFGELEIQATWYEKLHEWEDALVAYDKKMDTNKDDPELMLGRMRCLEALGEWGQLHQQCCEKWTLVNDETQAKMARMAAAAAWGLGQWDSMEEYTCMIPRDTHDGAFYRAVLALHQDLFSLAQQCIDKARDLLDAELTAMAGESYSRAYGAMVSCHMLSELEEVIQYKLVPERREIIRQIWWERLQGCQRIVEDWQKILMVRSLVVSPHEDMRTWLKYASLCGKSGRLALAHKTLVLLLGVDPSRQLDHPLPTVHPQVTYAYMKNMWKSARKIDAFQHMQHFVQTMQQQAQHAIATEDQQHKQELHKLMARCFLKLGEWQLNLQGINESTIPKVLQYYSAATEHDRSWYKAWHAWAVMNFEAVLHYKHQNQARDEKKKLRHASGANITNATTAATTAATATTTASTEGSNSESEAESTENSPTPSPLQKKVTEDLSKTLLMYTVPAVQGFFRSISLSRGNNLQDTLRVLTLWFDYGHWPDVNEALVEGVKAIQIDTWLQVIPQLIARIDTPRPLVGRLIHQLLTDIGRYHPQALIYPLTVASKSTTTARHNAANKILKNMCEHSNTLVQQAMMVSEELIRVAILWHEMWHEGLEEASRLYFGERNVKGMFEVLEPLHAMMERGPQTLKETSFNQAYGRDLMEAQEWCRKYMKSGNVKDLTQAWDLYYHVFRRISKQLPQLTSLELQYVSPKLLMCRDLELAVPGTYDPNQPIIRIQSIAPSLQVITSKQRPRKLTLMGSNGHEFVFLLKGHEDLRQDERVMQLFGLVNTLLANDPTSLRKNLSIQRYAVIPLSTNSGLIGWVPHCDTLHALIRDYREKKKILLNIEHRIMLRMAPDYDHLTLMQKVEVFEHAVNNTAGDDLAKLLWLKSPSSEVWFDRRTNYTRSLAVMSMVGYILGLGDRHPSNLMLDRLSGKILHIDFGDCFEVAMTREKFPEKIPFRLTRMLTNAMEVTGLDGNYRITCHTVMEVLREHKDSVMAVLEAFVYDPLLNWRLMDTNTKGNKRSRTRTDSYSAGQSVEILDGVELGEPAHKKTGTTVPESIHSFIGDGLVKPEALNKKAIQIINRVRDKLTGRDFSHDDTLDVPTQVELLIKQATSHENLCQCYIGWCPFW
Experimental: In vitro kinase inhibition assays were performed by SelectScreen Services (Thermo Fisher Scientific) using either Z’-LYTE (mTOR, Src, Csk, EGFR, HER2 and HGK), Adapta (LRRK2) or LanthaScreen (DDR2) assay format (standardized protocols can be accessed on the SelectScreen website: https://www.thermofisher.com/us/en/home/products-and-services/services/custom-services/screening-and-profiling-services/selectscreen-profiling-service/selectscreen-kinase-profiling-service.html. When indicated, recombinant FKBP12 protein was added to the assay mixture to a final concentration of 10 µM.

[1] = recombinant FKBP12, Extended Data Fig. 2, read-out: Kd (FKBP12)

T1 sequence (P62942 whole entry): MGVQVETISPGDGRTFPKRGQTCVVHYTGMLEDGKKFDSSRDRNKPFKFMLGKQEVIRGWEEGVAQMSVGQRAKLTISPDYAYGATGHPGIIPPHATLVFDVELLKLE

SMILES: CO[C@H]1C[C@@H](C)C/C(C)=C/[C@@H](CCCc2ccccn2)C(=O)C[C@H](O)[C@@H](C)[C@@H](/C(C)=C/[C@@H]2CC[C@@H](O)[C@H](OC)C2)OC(=O)[C@@H]2CCCCN2C(=O)C(=O)[C@]2(O)O[C@H]1[C@@H](OC)C[C@H]2C [05-084 (06-039)]
- Kd (FKBP12; [1]): 3.3 nM

SMILES: CCC(C)(C)C(=O)C(=O)N1CCCC[C@H]1C(=O)O[C@H](CCc1ccc(OC)c(OC)c1)c1cccc(NC(=O)C[N+](C)(C)C)c1 [Compound 01-025]
- Kd (FKBP12; [1]): 95 nM

SMILES: CCC(C)(C)C(=O)C(=O)N1CCCC[C@H]1C(=O)O[C@H](CCc1ccc(OC)c(OC)c1)c1cccc(OCCN)c1 [Compound 01-038]
- Kd (FKBP12; [1]): 9.4 nM

SMILES: CCC(C)(C)C(=O)C(=O)N1CCCC[C@H]1C(=O)O[C@H](CCc1ccc(OC)c(OC)c1)c1cccc(NC(=O)CN)c1 [Compound 01-040]
- Kd (FKBP12; [1]): 21 nM

SMILES: CCC(C)(C)C(=O)C(=O)N1CCCC[C@H]1C(=O)O[C@H](CCc1ccc(OC)c(OC)c1)c1cccc(OCC(=O)O)c1 [Compound 01-041]
- Kd (FKBP12; [1]): 38 nM

SMILES: CCC(C)(C)C(=O)C(=O)N1CCCC[C@H]1C(=O)O[C@H](CCc1ccc(OC)c(OC)c1)c1cccc(NC(=O)CN2CCOCC2)c1 [Compound 01-043]
- Kd (FKBP12; [1]): 15 nM

SMILES: CCC(C)(C)C(=O)C(=O)N1CCCC[C@H]1C(=O)O[C@H](CCc1ccc(OC)c(OC)c1)c1cccc(NC(=O)CN(C)C)c1 [Compound 01-044]
- Kd (FKBP12; [1]): 13 nM

SMILES: CCC(C)(C)C(=O)C(=O)N1CCCC[C@H]1C(=O)O[C@H](CCc1ccc(OC)c(OC)c1)c1cccc(NCC(=O)O)c1 [Compound 01-060A]
- Kd (FKBP12; [1]): 46 nM

SMILES: CCC(C)(C)C(=O)C(=O)N1CCCC[C@H]1C(=O)O[C@H](CCc1ccc(OC)c(OC)c1)c1cccc(N(CC(=O)O)CC(=O)O)c1 [Compound 01-060B]
- Kd (FKBP12; [1]): 75 nM

SMILES: CCC(C)(C)C(=O)C(=O)N1CCCC[C@H]1C(=O)O[C@H](CCc1ccc(OC)c(OC)c1)c1cccc(NC(=O)CNC(=N)N)c1 [Compound 01-065]
- Kd (FKBP12; [1]): 38 nM

SMILES: CCC(C)(C)C(=O)C(=O)N1CCCC[C@H]1C(=O)O[C@H](CCc1ccc(OC)c(OC)c1)c1cccc(NC(=O)CNN)c1 [Compound 01-070]
- Kd (FKBP12; [1]): 21 nM

SMILES: CCC(C)(C)C(=O)C(=O)N1CCCC[C@H]1C(=O)O[C@H](CCc1ccc(OC)c(OC)c1)c1cccc(NC(=O)CN2CCN(C)CC2)c1 [Compound 01-072]
- Kd (FKBP12; [1]): 13 nM

SMILES: C=CC(=O)Nc1cccc([C@@H](CCc2ccc(OC)c(OC)c2)OC(=O)[C@@H]2CCCCN2C(=O)C(=O)C(C)(C)CC)c1 [Compound 02-014]
- Kd (FKBP12; [1]): 64 nM

SMILES: CCC(C)(C)C(=O)C(=O)N1CCCC[C@H]1C(=O)O[C@H](CCc1ccc(OC)c(OC)c1)c1cccc(NCCN)c1 [Compound 02-032]
- Kd (FKBP12; [1]): 36 nM

SMILES: CCC(C)(C)C(=O)C(=O)N1CCCC[C@H]1C(=O)O[C@H](CCc1ccc(OC)c(OC)c1)c1cccc(NC(=O)CS)c1 [Compound 02-055]
- Kd (FKBP12; [1]): 64 nM

SMILES: CCC(C)(C)C(=O)C(=O)N1CCCC[C@H]1C(=O)O[C@H](CCc1ccc(OC)c(OC)c1)c1cccc(NC(=O)CN=[N+]=[N-])c1 [Compound 02-096]
- Kd (FKBP12; [1]): 6 nM

SMILES: CO[C@H]1C[C@@H](C)C/C(C)=C/[C@@H](CCCC(=O)O)C(=O)C[C@H](O)[C@@H](C)[C@@H](/C(C)=C/[C@@H]2CC[C@@H](O)[C@H](OC)C2)OC(=O)[C@@H]2CCCCN2C(=O)C(=O)[C@]2(O)O[C@H]1[C@@H](OC)C[C@H]2C [Compound 05-020]
- Kd (FKBP12): 1.5 nM

SMILES: CO[C@H]1C[C@@H](C)C/C(C)=C/[C@@H](CCCSC[C@H](N)C(=O)O)C(=O)C[C@H](O)[C@@H](C)[C@@H](/C(C)=C/[C@@H]2CC[C@@H](O)[C@H](OC)C2)OC(=O)[C@@H]2CCCCN2C(=O)C(=O)[C@]2(O)O[C@H]1[C@@H](OC)C[C@H]2C [Compound 05-037]
- Kd (FKBP12): 8.7 nM

SMILES: CO[C@H]1C[C@@H](C)C/C(C)=C/[C@@H](CCCC(=O)Nc2ccccn2)C(=O)C[C@H](O)[C@@H](C)[C@@H](/C(C)=C/[C@@H]2CC[C@@H](O)[C@H](OC)C2)OC(=O)[C@@H]2CCCCN2C(=O)C(=O)[C@]2(O)O[C@H]1[C@@H](OC)C[C@H]2C [Compound 05-064]
- Kd (FKBP12): 0.2 nM

SMILES: CC(C)n1nc(-c2ccc3oc(N)nc3c2)c2c(N)ncnc21 [MLN128]
- residual kinase activity (mTOR) (mTOR; 0.00495 nM drug, +FKBP): 101
- remaining activity at 4.95 pM (mTOR; 0.00495 nM drug, +FKBP): 103%
- residual kinase activity (mTOR) (mTOR; 0.00495 nM drug, no FKBP): 101
- remaining activity at 4.95 pM (mTOR; 0.00495 nM drug, no FKBP): 105%
- residual kinase activity (mTOR) (mTOR; 0.0152 nM drug, +FKBP): 105
- remaining activity at 15.2 pM (mTOR; 0.0152 nM drug, +FKBP): 103%
- residual kinase activity (mTOR) (mTOR; 0.0152 nM drug, no FKBP): 106
- remaining activity at 15.2 pM (mTOR; 0.0152 nM drug, no FKBP): 101%
- residual kinase activity (mTOR) (mTOR; 0.0457 nM drug, +FKBP): 105
- remaining activity at 45.7 pM (mTOR; 0.0457 nM drug, +FKBP): 102%
- residual kinase activity (mTOR) (mTOR; 0.0457 nM drug, no FKBP): 104
- remaining activity at 45.7 pM (mTOR; 0.0457 nM drug, no FKBP): 102%
- residual kinase activity (mTOR) (mTOR; 0.137 nM drug, +FKBP): 101
- remaining activity at 0.000137 µM (mTOR; 0.137 nM drug, +FKBP): 106%
- remaining activity at 0.000137 µM (mTOR; 0.137 nM drug, no FKBP): 103%
- residual kinase activity (mTOR) (mTOR; 0.412 nM drug, +FKBP): 96
- remaining activity at 0.000412 µM (mTOR; 0.412 nM drug, +FKBP): 97%
- residual kinase activity (mTOR) (mTOR; 0.412 nM drug, no FKBP): 98
- remaining activity at 0.000412 µM (mTOR; 0.412 nM drug, no FKBP): 99%
- residual kinase activity (mTOR) (mTOR; 1.23 nM drug, +FKBP): 83
- remaining activity at 0.00123 µM (mTOR; 1.23 nM drug, +FKBP): 84%
- residual kinase activity (mTOR) (mTOR; 1.23 nM drug, no FKBP): 81
- remaining activity at 0.00123 µM (mTOR; 1.23 nM drug, no FKBP): 84%
- remaining activity at 0.0111 µM (mTOR; 11.1 nM drug, +FKBP): 19%
- residual kinase activity (mTOR) (mTOR; 11.1 nM drug, no FKBP): 17
- remaining activity at 0.0111 µM (mTOR; 11.1 nM drug, no FKBP): 18%
- remaining activity at 0.0333 µM (mTOR; +FKBP): 6%
- remaining activity at 0.0333 µM (mTOR; no FKBP): 6%
- residual kinase activity (mTOR) (mTOR; […] drug, +FKBP): 53
- remaining activity at […] (mTOR; […] drug, +FKBP): 49%
- residual kinase activity (mTOR) (mTOR; […] drug, no FKBP): 50
- remaining activity at […] (mTOR; […] drug, no FKBP): 48%

Now from value to compound:

- Kd (FKBP12; [1]): 44 nM
SMILES: CCC(C)(C)C(=O)C(=O)N1CCCC[C@H]1C(=O)O[C@H](CCc1ccc(OC)c(OC)c1)c1cccc(NC(=O)CCOCCOCCN)c1 [Compound 03-077]

- Kd (FKBP12; [1]): 31 nM
SMILES: CCC(C)(C)C(=O)C(=O)N1CCCC[C@H]1C(=O)O[C@H](CCc1ccc(OC)c(OC)c1)c1cccc(NC(=O)Cc2ccccn2)c1 [Compound 03-083]

- Kd (FKBP12; [1]): 19 nM
SMILES: CCC(C)(C)C(=O)C(=O)N1CCCC[C@H]1C(=O)O[C@H](CCc1ccc(OC)c(OC)c1)c1cccc(NC(=O)CCOCCN)c1 [Compound 03-084]

- Kd (FKBP12; [1]): 29 nM
SMILES: CCC(C)(C)C(=O)C(=O)N1CCCC[C@H]1C(=O)O[C@H](CCc1ccc(OC)c(OC)c1)c1cccc(NC(=O)Cc2cccc[n+]2[O-])c1 [Compound 03-087]

- Kd (FKBP12; [1]): 0.7 nM
SMILES: CO[C@H]1C[C@@H](C)C/C(C)=C/[C@@H](CCCSCCN)C(=O)C[C@H](O)[C@@H](C)[C@@H](/C(C)=C/[C@@H]2CC[C@@H](O)[C@H](OC)C2)OC(=O)[C@@H]2CCCCN2C(=O)C(=O)[C@]2(O)O[C@H]1[C@@H](OC)C[C@H]2C [Compound 05-011]

- Kd (FKBP12; [1]): 0.4 nM
SMILES: CO[C@H]1C[C@@H](C)C/C(C)=C/[C@@H](C/C=C/C(=O)O)C(=O)C[C@H](O)[C@@H](C)[C@@H](/C(C)=C/[C@@H]2CC[C@@H](O)[C@H](OC)C2)OC(=O)[C@@H]2CCCCN2C(=O)C(=O)[C@]2(O)O[C@H]1[C@@H](OC)C[C@H]2C [Compound 05-012]

- Kd (FKBP12; [1]): 1.4 nM
SMILES: CO[C@H]1C[C@@H](C)C/C(C)=C/[C@@H](CCCSCCN(C)C)C(=O)C[C@H](O)[C@@H](C)[C@@H](/C(C)=C/[C@@H]2CC[C@@H](O)[C@H](OC)C2)OC(=O)[C@@H]2CCCCN2C(=O)C(=O)[C@]2(O)O[C@H]1[C@@H](OC)C[C@H]2C [Compound 05-013]

- Kd (FKBP12; [1]): 2.5 nM
SMILES: CO[C@H]1C[C@@H](C)C/C(C)=C/[C@@H](CCCSCCNC(=O)CNc2ccccn2)C(=O)C[C@H](O)[C@@H](C)[C@@H](/C(C)=C/[C@@H]2CC[C@@H](O)[C@H](OC)C2)OC(=O)[C@@H]2CCCCN2C(=O)C(=O)[C@]2(O)O[C@H]1[C@@H](OC)C[C@H]2C [Compound 05-028]

- Kd (FKBP12; [1]): 3.6 nM
SMILES: CO[C@H]1C[C@@H](C)C/C(C)=C/[C@@H](C/C=C/c2ccccn2)C(=O)C[C@H](O)[C@@H](C)[C@@H](/C(C)=C/[C@@H]2CC[C@@H](O)[C@H](OC)C2)OC(=O)[C@@H]2CCCCN2C(=O)C(=O)[C@]2(O)O[C@H]1[C@@H](OC)C[C@H]2C [Compound 05-050]

- Kd (FKBP12; [1]): 1.2 nM
SMILES: CO[C@H]1C[C@@H](C)C/C(C)=C/[C@@H](C/C=C/c2ccncc2)C(=O)C[C@H](O)[C@@H](C)[C@@H](/C(C)=C/[C@@H]2CC[C@@H](O)[C@H](OC)C2)OC(=O)[C@@H]2CCCCN2C(=O)C(=O)[C@]2(O)O[C@H]1[C@@H](OC)C[C@H]2C [Compound 05-051]

- Kd (FKBP12; [1]): 0.6 nM
SMILES: CO[C@H]1C[C@@H](C)C/C(C)=C/[C@@H](C/C=C/c2cccc[n+]2[O-])C(=O)C[C@H](O)[C@@H](C)[C@@H](/C(C)=C/[C@@H]2CC[C@@H](O)[C@H](OC)C2)OC(=O)[C@@H]2CCCCN2C(=O)C(=O)[C@]2(O)O[C@H]1[C@@H](OC)C[C@H]2C [Compound 05-060]

- Kd (FKBP12; [1]): 0.2 nM
SMILES: CO[C@H]1C[C@@H](C)C/C(C)=C/[C@@H](C/C=C/c2cc[n+]([O-])cc2)C(=O)C[C@H](O)[C@@H](C)[C@@H](/C(C)=C/[C@@H]2CC[C@@H](O)[C@H](OC)C2)OC(=O)[C@@H]2CCCCN2C(=O)C(=O)[C@]2(O)O[C@H]1[C@@H](OC)C[C@H]2C [Compound 05-061]
